Measured values published in PubChem BioAssay (NCI).
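Where inhibition never reached the appropriate level, the endpoint shown equals the highest concentration tested. Otherwise, values were interpolated linearly from a five-concentration, 48-hour dose response in 96-well plates. The concentration for full growth arrest is given as TGI.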

What was measured:
Test in all cases: NCI anticancer screen, dose series, 48 h
M14 melanoma = system: M14 melanoma
UACC-62 melanoma = system: UACC-62 melanoma
NCI-H460 lung = system: NCI-H460 lung
NCI-H23 lung = system: NCI-H23 lung
IGROV1 ovarian = system: IGROV1 ovarian
M19-MEL melanoma = system: M19-MEL melanoma
RPMI-8226 leukemia = system: RPMI-8226 leukemia
MALME-3M melanoma = system: MALME-3M melanoma
NCI-H226 lung = system: NCI-H226 lung
KM12 colon = system: KM12 colon
RXF 393 renal = system: RXF 393 renal
HOP-62 NSCLC = system: HOP-62 NSCLC
LOX IMVI melanoma = system: LOX IMVI melanoma
NCI-H522 lung = system: NCI-H522 lung
SNB-19 CNS = system: SNB-19 CNS
SK-MEL-5 melanoma = system: SK-MEL-5 melanoma
U251 CNS = system: U251 CNS
SF-295 CNS = system: SF-295 CNS

Measured: TGI

O=C(N/N=C(\C1=Nc2ccc(Cl)cc2NC1O)C(O)/C=C/c1ccccc1)c1ccncc1 (stereo unspecified)
> 100 µM: all assays above

CCc1ccccc1NC(=O)CC1NC(=O)CS1 (stereo unspecified)
> 100 µM: all assays above
